Laboratory results from patent publication US20230026616A1, “PYRIMIDOIMIDAZOLE COMPOUNDS USED AS DNA-PK INHIBITORS” (MEDSHINE DISCOVERY INC., priority 2019, published 2023).
Marks after values point to notes of the source that are not given here.

Legend:
[1] = Pharmacokinetic and brain exposure evaluation in rats; type: in vivo, SD male rats; settings: for Vd: read-out: Vdss
Excerpt: (§1) IV: intravenous injection; PO: oral; C0: instantaneous […] concentration after intravenous injection; Cmax: highest plasma concentration after administration; Tmax: time required to reach peak of drug concentration after administration; T1/2: time required for the plasma drug concentration to decrease by half, Vdss: apparent volume of distribution, refers to the proportional constant of the drug dose in vivo and the blood drug concentration when the drug reaches a dynamic equilibrium in vivo. Cl: clearance rate, refers to the […] cleared from the body per unit time; Tlast: time at the last detection point; AUC0-last: area under the drug-time curve, refers to the area covered by the plasma concentration curve and the time axis; F: a measure of the speed and degree of drug absorption into the blood circulation, which is an important indicator for evaluating the degree of drug absorption.
Test compounds were mixed with 10% dimethyl sulfoxide/50% polyethylene glycol 200/40% water, vortexed and sonicated to prepare a nearly clear solution of 0.5 mg/mL (compound 5) or 1 mg/mL (compound 17), then filtered through a microporous membrane for next step. SD male rats were selected and administered intravenously with the candidate compound solution at a dose of 1 mg/kg (compound 5) or 2 mg/kg (compound 17). Test compounds were mixed with 10% dimethyl sulfoxide/50% polyethylene glycol 200/40% water, vortexed and sonicated to prepare a homogeneous suspension of 4 mg/mL (compound 5) or a nearly clear solution of 1 mg/mL (compound 17). SD male rats were selected and orally administered with the candidate compound solution at a dose of 40 mg/kg (compound 5) or 10 mg/kg (compound 17). Whole blood, cerebrospinal fluid, brain tissue were collected for a certain period of time and plasma was prepared, and the drug concentration was detected by LC-MS/MS method, and the pharmacokinetic parameters were calculated by Phoenix WinNonlin software (Pharsight, USA).

[2] = Pharmacokinetic evaluation (1): cassette PK in Balb/c male mice, plasma; type: in vivo; settings: for AUC(0-t) / C0 / clearance / half-life / Vd / Cmax / Tmax: male, Balb/c; for AUC(0-t) / C0 / clearance / half-life / Vd / Cmax / Tmax / Tlast: mouse plasma; for Vd: read-out: Vdss; for Tmax: read-out: Tmax; for F: mouse
Description: Test compounds were mixed with 10% dimethyl sulfoxide/50% polyethylene glycol 200/40% water (compounds 1, 4, 10, 17) or 20% N,N-dimethylacetamide/80% water (compound 5), vortexed and sonicated to prepare a nearly clear solution of 0.08 mg/mL (compounds 1, 4, 10, 17) or 0.50 mg/mL (compound 5), then filtered through a microporous membrane for next step. Balb/c male mice of 18 to 20 grams were selected and administered intravenously with the candidate compound solution at a dose of 0.4 (compounds 1, 4, 10, 17) or 1 mg/kg (compound 5). Test compounds were mixed with 10% dimethyl sulfoxide/50% polyethylene glycol 200/40% water (compounds 1, 4, 10, 17) or 20%-hydroxypropyl-β-cyclodextrin (compound 5), vortexed and sonicated to prepare a nearly clear solution of 0.2 mg/mL (compounds 1, 4, 10, 17) or 1 mg/mL (compound 5), then filtered through a microporous membrane for next step. Balb/c male mice of 18 to 20 grams were selected and orally administered with the candidate compound solution at a dose of 2 (compounds 1, 4, 10, 17) or 5 mg/kg (compound 5). Whole blood was collected for a certain period of time, and plasma was prepared, then drug concentration was detected by LC-MS/MS method, and pharmacokinetic parameters were calculated by Phoenix WinNonlin software (Pharsight, USA).
as §1

Human DNA-PK = target: T1, Human DNA-PK (Homo sapiens, UniProt P78527); test: DNA-dependent protein kinase (DNA-PK) inhibitory activity screening (Eurofins, HTRF); type: biochemical; settings: ATP: 10 μM; read-out: DNA-PK kinase inhibition IC50
T1 construct: purchased Eurofins (Eurofins Pharma Discovery Service)
Description: Experimental Embodiment 1: DNA-Dependent Protein Kinase (DNA-PK) Inhibitory Activity Screening Experiment
This experiment was tested in the Eurofins
Human DNA-PK; Mg/ATP; GST-cMyc-p53; EDTA; Ser15 antibody; ATP: 10 μM.
Experimental Method (Eurofins Pharma Discovery Service):
DNA-PK (h) was incubated in assay buffer containing 50 nM GST-cMyc-p53 and Mg/ATP (according to the required concentration). The reaction was initiated by adding Mg/ATP mixture. After 30 minutes of incubation at room temperature, the reaction was stopped by adding a stop solution containing EDTA. Finally, detection buffer (containing labeled anti-GST monoclonal antibody and europium-labeled anti-Ser15 antibody against phosphorylated p53) was added. The plate was then read in time-resolved fluorescence mode, and the homogeneous time-resolved fluorescence (HTRF) signal was determined according to the formula HTRF=10000×(Em665 nm/Em620 nm).

[3] = Pharmacokinetic evaluation in cynomolgus monkeys; type: in vivo, Male cynomolgus monkeys
Excerpt: as §1
Test compound was mixed with 10% dimethyl sulfoxide/50% polyethylene glycol 200/40% water, vortexed and sonicated to prepare a nearly clear solution of 1 mg/mL, then filtered through a microporous membrane for next step. Male cynomolgus monkeys were selected and administered intravenously with the candidate compound solution at a dose of 1 mg/kg. Test compound was mixed with 10% dimethyl sulfoxide/50% polyethylene glycol 200/40% water, vortexed and sonicated to prepare a nearly clear solution of 1 mg/mL, then filtered with a microporous membrane for next step. Male cynomolgus monkeys were selected and orally administered with the candidate compound solution at a dose of 5 mg/kg. Whole blood was collected for a certain period of time, and plasma was prepared, then drug concentration was detected by LC-MS/MS method, and pharmacokinetic parameters were calculated by Phoenix WinNonlin software (Pharsight, USA).

[4] = male, SD, 2 mg/kg, rat plasma, IV 2 mpk
[5] = male, SD, 10 mg/kg, rat plasma, PO 10 mpk
[6] = male, 1 mg/kg, cynomolgus monkey plasma, IV 1 mpk
[7] = male, 5 mg/kg, cynomolgus monkey plasma, PO 5 mpk
[8] = male, SD, 1 mg/kg, rat plasma, IV 1 mpk
[9] = male, SD, 40 mg/kg, rat, PO 40 mpk, Cerebrospinal fluid
[10] = male, SD, 40 mg/kg, rat, PO 40 mpk, Plasma

Cc1cc2nncn2cc1Nc1ncc2c(n1)n(N1CC3CCC(C1)O3)c(=O)n2C [Compound 17]
AUC(0-t) [1, 4]: 4.86 µM·h | C0 [1, 4]: 5.3 µM | clearance [1, 4]: 1.01 L/h/kg | half-life [1, 4]: 1.16 h | Vd [1, 4]: 1.4 L/kg | AUC(0-t) [1, 5]: 32.5 µM·h | Tmax [1, 5]: 2 h | half-life [1, 5]: 2.29 h | Cmax ([1]; male, SD, 10 mg/kg, rat plasma, PO 10 mpk, read-out: Cmax): 6.25 µM | Tlast ([1]; rat plasma, IV 2 mpk): 8 h | Tlast ([1]; rat plasma, PO 10 mpk): 8 h | AUC(0-t) ([2]; IV 0.4 mg/kg): 0.47 µM·h | C0 ([2]; IV 0.4 mg/kg): 0.748 µM | clearance ([2]; IV 0.4 mg/kg): 2.08 L/h/kg | half-life ([2]; IV 0.4 mg/kg): 0.559 h | Vd ([2]; IV 0.4 mg/kg): 1.39 L/kg | AUC(0-t) ([2]; PO 2 mg/kg): 3.4 µM·h | Cmax ([2]; PO 2 mg/kg): 1.54 µM | half-life ([2]; PO 2 mg/kg): 0.81 h | Tmax ([2]; PO 2 mg/kg): 1 h | Tlast ([2]; IV 0.4 mg/kg): 4 h | Tlast ([2]; PO 2 mg/kg): 8 h | F ([2]; PO 2 mg/kg vs IV 0.4 mg/kg): 144% | IC50 (Human DNA-PK): 0.5 nM

Cc1cc2ncnn2cc1Nc1ncc2c(n1)n(N1CC3CCC(C1)O3)c(=O)n2C [Compound 5]
Tlast ([3]; cynomolgus monkey plasma, PO 5 mpk): 12 h | F ([3]; cynomolgus monkey, PO 5 mpk vs IV 1 mpk): 115% | AUC(0-t) [3, 6]: 2.44 µM·h | C0 [3, 6]: 2.29 µM | clearance [3, 6]: 1.01 L/h/kg | half-life [3, 6]: 3.6 h | Vd ([3]; male, 1 mg/kg, cynomolgus monkey plasma, IV 1 mpk, read-out: Vdss): 1.52 L/kg | AUC(0-t) [3, 7]: 14 µM·h | Cmax [3, 7]: 4.5 µM | Tmax [3, 7]: 1.17 h | half-life [3, 7]: 1.35 h | AUC(0-t) [1, 8]: 2.38 µM·h | C0 [1, 8]: 3.04 µM | clearance [1, 8]: 1.02 L/h/kg | half-life [1, 8]: 1.45 h | Vd [1, 8]: 1.41 L/kg | Tmax ([1]; male, SD, 40 mg/kg, rat, PO 40 mpk, Brain tissue): 4 h | AUC(0-t) [1, 9]: 7.74 µM·h | Tmax [1, 9]: 2 h | Cmax ([1]; male, SD, 40 mg/kg, rat, PO 40 mpk, Cerebrospinal fluid, read-out: Cmax): 1.26 µM | AUC(0-t) [1, 10]: 59.9 µM·h | Tmax [1, 10]: 2 h | Cmax ([1]; male, SD, 40 mg/kg, rat, PO 40 mpk, Plasma, read-out: Cmax): 10.2 µM | Tlast ([1]; rat plasma, IV 1 mpk): 8 h | AUC0-last ([1]; rat, PO 40 mpk, Brain tissue): 6369^b h*nmol/kg | Cmax ([1]; rat, PO 40 mpk, Brain tissue): 1019^a nmol/kg | Tlast ([1]; rat, PO 40 mpk, Brain tissue): 8 h | Tlast ([1]; rat, PO 40 mpk, Cerebrospinal fluid): 8 h | Tlast ([1]; rat, PO 40 mpk, Plasma): 8 h | AUC(0-t) ([2]; IV 1 mg/kg): 1.66 µM·h | C0 ([2]; IV 1 mg/kg): 3.6 µM | clearance ([2]; IV 1 mg/kg): 1.48 L/h/kg | half-life ([2]; IV 1 mg/kg): 1.28 h | Vd ([2]; IV 1 mg/kg): 1.49 L/kg | AUC(0-t) ([2]; PO 5 mg/kg): 3.49 µM·h | Cmax ([2]; PO 5 mg/kg): 2.17 µM | half-life ([2]; PO 5 mg/kg): 3.85 h | Tmax ([2]; PO 5 mg/kg): 0.25 h | Tlast ([2]; PO 5 mg/kg): 10 h | F ([2]; PO 5 mg/kg vs IV 1 mg/kg): 44.5% | IC50 (Human DNA-PK): 1 nM
